Laboratory results as given in article PMC8698320, “Inhibition of MurA Enzyme from Escherichia coli and Staphylococcus aureus by Diterpenes from Lepechinia meyenii and Their Synthetic Analogs” (Antibiotics, 2021).
≈ marks a conversion by molar mass, not a printed value. Where “and” joins values, the source holds several entries; their conditions need not be identical. Equal entries are not always repeated. Where two headings read alike, the source gives them in different places.

Columns and labels:
Escherichia coli MurA = target: T1, Escherichia coli MurA (Escherichia coli, UniProt P0A749); assay: MurA inhibition, colorimetric malachite green method; format: biochemical; settings: for remaining activity at 100 µM: 10 min, residual activity at 100 µM, read-out: RA % Escherichia coli MurA
T1 construct: made in house; host or cells: E. coli
T1 sequence (P0A749 whole entry): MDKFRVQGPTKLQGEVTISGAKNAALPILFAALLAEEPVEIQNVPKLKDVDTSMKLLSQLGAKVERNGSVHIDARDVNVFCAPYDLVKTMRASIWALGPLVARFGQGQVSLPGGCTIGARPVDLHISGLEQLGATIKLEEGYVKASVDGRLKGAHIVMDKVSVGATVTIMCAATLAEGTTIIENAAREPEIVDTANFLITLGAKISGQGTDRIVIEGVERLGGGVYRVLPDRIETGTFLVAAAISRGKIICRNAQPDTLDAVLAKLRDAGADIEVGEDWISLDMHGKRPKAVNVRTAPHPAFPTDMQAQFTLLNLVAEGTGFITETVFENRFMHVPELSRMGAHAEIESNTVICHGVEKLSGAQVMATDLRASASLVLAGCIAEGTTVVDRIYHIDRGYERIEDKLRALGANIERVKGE
Experimental: (§1) Polymyxin, UDP-GlcNAc, D-Ala-D-Ala, PEP, ATP and Hepes were purchased from Sigma-Aldrich Co. (St Louis, MO, USA). UDP-MurNAc-L-Ala-D-Glu-m-DAP was obtained from BACWAN facility, School of Life Sciences, The University of Warwick, UK. MurA from E. coli and S. aureus were recombinant, expressed in E. coli, while MurF from E. coli and S. aureus were recombinant expressed in E. coli.
(§2) MurA inhibition was determined with the colorimetric malachite green method in which the release of orthophosphate generated during the reaction is measured. Briefly, 2.5 µL of each tested compound previously dissolved in DMSO at a concentration of 100 µM, were added in duplicate to 50 µL of the reaction mixture containing 50 mM HEPES pH 7.8, 0.005% Triton X-114, 200 µM UDP-GlcNAc, 100 µM PEP and purified MurA (200 nM) diluted in 50 mM Hepes at pH 7.8. The 50 µL reaction mixture for MurF inhibitory assay contained 50 mM Hepes pH 8.0, 50 mM MgCl2, 0.005% Triton X-114, 600 µM D-Ala-D-Ala, 100 µM UDP-MurNAc-L-Ala-D-Glu-m-DAP, 500 µM ATP and purified MurF (8 nM). Time-dependent inhibition assays were also performed. MurA was preincubated with substrate UDP-GlcNAc and target compounds for 10 min at 37 °C, and then the reaction was started by the addition of the second substrate PEP, resulting in a mixture with a final volume of 50 µL as above described. MurF was preincubated with compounds for 10 min at 37 °C, and the reaction was started by the addition of the above-mentioned substrates to get a mixture with a final volume of 50 µL, as already described. In both experiments, after incubation for 15 min at 37 °C, the reaction was stopped by adding Biomol® reagent (100 µL, Enzo Life Sciences, Inc., Farmingdale, NY, USA). The absorbance was measured at 650 nm after 5 min in a microplate reader (Synergy H4). The final concentration of DMSO in the reaction mixture was 5% (v/v). Fosfomycin was used as a reference in MurA assay. The percentage of RA was calculated in comparison to negative controls containing only 5% DMSO. […] The results are expressed as mean ± standard error.

[1] = target: T2, Staphylococcus aureus MurA (Staphylococcus aureus, UniProt Q931H5); assay: biochemical; settings: for remaining activity at 100 µM: 10 min
T2 construct: made in house; host or cells: E. coli
T2 sequence (Q931H5 1-421): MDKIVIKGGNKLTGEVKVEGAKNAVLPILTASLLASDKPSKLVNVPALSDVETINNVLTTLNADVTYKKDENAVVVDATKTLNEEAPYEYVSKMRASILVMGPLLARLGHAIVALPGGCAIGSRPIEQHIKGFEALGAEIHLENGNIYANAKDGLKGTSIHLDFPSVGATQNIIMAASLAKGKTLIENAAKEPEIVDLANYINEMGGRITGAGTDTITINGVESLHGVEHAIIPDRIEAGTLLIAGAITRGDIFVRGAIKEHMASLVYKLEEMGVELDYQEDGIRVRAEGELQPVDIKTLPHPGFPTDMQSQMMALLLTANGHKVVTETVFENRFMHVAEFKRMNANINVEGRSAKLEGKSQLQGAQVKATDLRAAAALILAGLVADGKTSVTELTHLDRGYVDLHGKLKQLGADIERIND
Experimental: as §1
as §2, with “Briefly, 2.5 µL of each tested compound previously dissolved in DMSO at a concentration of 100 µM, were added in duplicate to 50 µL of the reaction mixture containing 50 mM HEPES pH 7.8, 0.005% Triton X-114, 200 µM UDP-GlcNAc, 100 µM PEP and purified MurA (200 nM) diluted in 50 mM Hepes at pH 7.8. The 50 µL reaction mixture for MurF inhibitory assay contained 50 mM Hepes pH 8.0, 50 mM MgCl2, 0.005% Triton X-114, 600 µM D-Ala-D-Ala, 100 µM UDP-MurNAc-L-Ala-D-Glu-m-DAP, 500 µM ATP and purified MurF (8 nM).” left out

E. coli (ATCC 25922) = assay: Antibacterial susceptibility testing, MIC by broth microdilution, alone or with polymyxin B; format: cell-based, Escherichia coli; settings: for MIC: Escherichia coli, read-out: MIC against E. coli; for MIC against E. coli with polymyxin B: with polymyxin B at sub-inhibitory concentration (half of the MIC, 0.49 µg/mL), permeabilized E. coli
Experimental: Overnight subcultures of the test organism carried out on plate count agar medium (PCA) were used.
After 24 h incubation at 37 °C with continuous shaking, absorbance was measured with an iMark micro-plate reader (Bio-Rad, Hercules, CA, USA) at 655 nm. Compound 1 was dissolved in DMSO, while compounds 4 and 6 were dissolved in ethanol or acetonitrile (ACN), respectively. Negative controls containing dissolution solvents at a final concentration of 2% or polymyxin B at 0.49 µg/mL were simultaneously carried out, and the growth was compared to the viability control, which contained only a culture medium. […] The large size of this glycopeptide antibiotic avoids its entrance into Gram-negative bacteria, while the addition of polymyxin B overcomes this inconvenience.

[2] = tested on: methicillin-sensitive and resistant Staphylococcus aureus (MSSA and MRSA); settings: growth curves of treated MSSA and MRSA; cited from earlier work
[3] = time of preincubation: 10 min, read-out: IC50 Escherichia coli MurA (converted)
[4] = time of preincubation: 10 min, read-out: IC50 Staphylococcus aureus MurA (converted)
[5] = ATCC25922, compound alone, 24 h, 37 °C, Mueller–Hinton broth
[6] = IC50 Escherichia coli MurA, time of preincubation: 10 min
[7] = IC50 Staphylococcus aureus MurA, time of preincubation: 10 min
[8] = residual activity at 100 µM, time of preincubation: 10 min, read-out: RA % Staphylococcus aureus MurA

Work on `CC(C)c1cc2c(c(O)c1O)[C@@]13CCCC(C)(C)[C@@H]1C[C@@H]2OC3=O` [Compound 1, carnosol] yielded an IC50 (Escherichia coli MurA; time of preincubation = 0 min, read-out: IC50 Escherichia coli MurA (converted)) of 66 µM, an IC50 (Escherichia coli MurA; [3]) of 2.8 µM and an IC50 ([1]; time of preincubation = 0 min, read-out: IC50 Staphylococcus aureus MurA (converted)) of 61 µM. The IC50 [1, 4] was 1.1 µM, the MIC (E. coli (ATCC 25922); [5]) was over 250 mg/L and the “MIC against E. coli with polymyxin B” value (E. coli (ATCC 25922)) was 125 mg/L.
For `CC(C)c1cc2c(c(O)c1O)[C@@]13CCCC(C)(C)[C@@H]1[C@H](OC3=O)[C@H]2O` [Compound 2, rosmanol], the IC50 (Escherichia coli MurA; [3]) was 12.9 µM and the IC50 [1, 4] was 5.7 µM.
In the case of `CC(C)c1cc2c(c(O)c1O)[C@@]1(C(=O)O)CCCC(C)(C)[C@@H]1CC2` [Compound 3, carnosic acid], the IC50 (Escherichia coli MurA; [6]) is reported as 25 µM and 25.1 µM and the IC50 [1, 7] is reported as 12 µM and 12.3 µM.
`COC(=O)[C@]12CCCC(C)(C)[C@@H]1CCc1cc(C(C)C)c(O)c(O)c12` [Compound 4, 20-methyl carnosate] gave a remaining activity at 100 µM (Escherichia coli MurA; time of preincubation: 10 min) of 0 to 28%, an IC50 (Escherichia coli MurA; IC50 Escherichia coli MurA, time of preincubation = 0 min) of 48 µM and an IC50 (Escherichia coli MurA; [6]) of 2.8 µM. For the same molecule, the remaining activity at 100 µM ([1]; read-out: RA % Staphylococcus aureus MurA, residual activity at 100 µM, time of preincubation: 10 min) was 0 to 28%, the IC50 ([1]; IC50 Staphylococcus aureus MurA, time of preincubation = 0 min) was 67 µM and the IC50 [1, 7] was 3.4 µM. The MIC (E. coli (ATCC 25922); [5]) was over 250 mg/L and the “MIC against E. coli with polymyxin B” value (E. coli (ATCC 25922)) was 3.9 mg/L.
In the case of `CC(C)c1cc2c3c(c1O)OC(=O)[C@@]31CCCC(C)(C)[C@@H]1CC2` [Compound 6, carnosic acid-γ-lactone], the IC50 (Escherichia coli MurA; [6]) is reported as 4.8 µM, the IC50 [1, 4] is reported as 7.9 µM and the MIC (E. coli (ATCC 25922); [5]) is reported as over 250 mg/L. The “MIC against E. coli with polymyxin B” value (E. coli (ATCC 25922)) was 125 mg/L.
`CC(C)c1cc2c(cc1O)[C@@]1(C)CCC[C@@](C)(C(=O)O)[C@@H]1CC2` [Compound 9, 12-hydroxy-dehydroabietic acid] gave an IC50 (Escherichia coli MurA; [3]) of 49.4 µM and an IC50 [1, 7] of 55.2 µM.
For `COC(=O)[C@]1(C)CCC[C@]2(C)c3cc(O)c(/C(C)=N/O)cc3CC[C@@H]12` [Compound 12], the remaining activity at 100 µM [1, 8] is listed as 72 to 100% and the “delay/reduction in the growth rate of MSSA and MRSA, until time” value [2] is listed as “up to 6 h”.
`CC/C(=N\O)c1cc2c(cc1O)[C@@]1(C)CCC[C@@](C)(C(=O)OC)[C@@H]1CC2` [Compound 13] showed a remaining activity at 100 µM [1, 8] of 72 to 100%.
Molecule `COC(=O)[C@]1(C)CCC[C@]2(C)c3cc(O)c(/C(C)=N/O)cc3/C(=N/O)C[C@@H]12` [Compound 14] has a remaining activity at 100 µM [1, 8] of 72 to 100%.
In the case of `CN[C@H](CC(C)C)C(=O)N[C@H]1C(=O)N[C@@H](CC(N)=O)C(=O)N[C@H]2C(=O)N[C@H]3C(=O)N[C@H](C(=O)N[C@H](C(=O)O)c4cc(O)cc(O)c4-c4cc3ccc4O)[C@H](O)c3ccc(c(Cl)c3)Oc3cc2cc(c3O[C@@H]2O[C@H](CO)[C@@H](O)[C@H](O)[C@H]2O[C@H]2C[C@](C)(N)[C@H](O)[C@H](C)O2)Oc2ccc(cc2Cl)[C@H]1O` [Vancomycin, vancomycin, reference compound], the MIC (E. coli (ATCC 25922); ATCC25922, 24 h) is reported as 250 mg/L (≈ 173 µM) and the “MIC against E. coli with polymyxin B” value (E. coli (ATCC 25922)) is reported as 62.5 mg/L.
With `C[C@@H]1O[C@@H]1P(=O)(O)O` [fosfomycin, reference compound] the remaining activity at 100 µM (Escherichia coli MurA; time of preincubation: 10 min) was 0%, the IC50 (Escherichia coli MurA; [6]) was 0.21 µM and the remaining activity at 100 µM [1, 8] was 0%. For the same molecule, the IC50 [1, 4] was 0.3 µM.
